The structures appear in SMILES notation. pIC50: −log10 of the molar value.

Common to all, as to format: functional, cell-based
One experiment has as its system MCF7. Kind of experiment: Antiproliferative activity against human MCF7 cell line by MTT assay. (In general: Formazan colour is commonly taken as a measure of viable cells.)
Another experiment deals with SF-268. In words: cells. Particulars: Homo sapiens.
A further experiment concerns NCI-H460. Kind of experiment: Antiproliferative activity against human NCI-H460 cell line by MTT assay.

Description for SF-268: Antiproliferative activity against human SF-268 cell line by MTT assay

With `O=P([O-])(O)C(O)(C[n+]1ccc(Cc2ccccc2)cc1)P(=O)(O)O` (centres undefined), the pIC50 (commonly the negative decadic logarithm of the IC50, by convention in mol/L) in the experiment with MCF7 is 3.72; with SF-268 it was 3.95; in the experiment with NCI-H460, 3.68.
Turning to `O=P([O-])(O)C(O)(C[n+]1ccccc1)P(=O)(O)O` (centres undefined), the values for the pIC50 in the experiment on MCF7, in the experiment with SF-268 and in the experiment on NCI-H460 were 4.10, 4.33 and 4.16, respectively.
In the same order, the values of `CCc1ccc[n+](CC(O)(P(=O)([O-])O)P(=O)(O)O)c1` (centres undefined) are 4.29, 4.34 and 4.14.
Take `O=P([O-])(O)C(O)(C[n+]1cccc(-c2ccccc2)c1)P(=O)(O)O` (centres undefined): the pIC50 in the experiment on MCF7 was 4.35; with SF-268 it was 4.57; in the experiment with NCI-H460, 4.28.
Turning to `Cc1ccc[n+](CC(O)(P(=O)([O-])O)P(=O)(O)O)c1` (centres undefined), the pIC50 in the experiment with MCF7 was 4.01; with SF-268 it was 4.28; in the experiment on NCI-H460 it was 4.18.
In the same order, the values of `O=P([O-])(O)C(O)(C[n+]1cccc(-c2ccc(O)cc2)c1)P(=O)(O)O` (centres undefined) are 4.43, 4.51 and 4.13.
The matching figures for `O=P([O-])(O)C(O)(C[n+]1cccc(F)c1)P(=O)(O)O` (centres undefined): 4.24, 4.31 and 4.18.
Regarding `O=P(O)(O)C(Cc1ccc(Br)c(Br)c1)P(=O)(O)O`, the results for the pIC50 in the experiment with MCF7, in the experiment with SF-268 and with NCI-H460 were 3.27, 3.46 and 3.35, respectively.
In the same order, the values of `O=P([O-])(O)C(O)(C[n+]1cccc(-c2ccc(F)cc2)c1)P(=O)(O)O` (centres undefined) are 4.76, 5.19 and 5.25.
In the same order, the values of `CC(C)OC(=O)OCOP(=O)(OCOC(=O)OC(C)C)C(Cc1cccc(C#N)c1)P(=O)(OCOC(=O)OC(C)C)OCOC(=O)OC(C)C` are 4.23, 5.11 and 4.65.
The matching figures for `CC(C)(C)C(=O)OCOP(=O)(OCOC(=O)C(C)(C)C)C(Cc1ccc(Br)c(Br)c1)P(=O)(OCOC(=O)C(C)(C)C)OCOC(=O)C(C)(C)C`: 6.66, 6.19 and 6.21.
On to `CC(C)OC(=O)OCOP(=O)(OCOC(=O)OC(C)C)C(Cc1ccc(Cl)c(Cl)c1)P(=O)(OCOC(=O)OC(C)C)OCOC(=O)OC(C)C`, for which the pIC50 is 5.71 with MCF7, 5.32 in the experiment on SF-268 and 5.31 in the experiment with NCI-H460.
In the same order, the values of `CC(C)OC(=O)OCOP(=O)(OCOC(=O)OC(C)C)C(Cc1ccc(F)c(F)c1)P(=O)(OCOC(=O)OC(C)C)OCOC(=O)OC(C)C` are 4.82, 4.55 and 4.70.
In the same order, the values of `Cc1ccc2ccc[n+](CC(O)(P(=O)([O-])O)P(=O)(O)O)c2c1` (centres undefined) are 3.54, 3.59 and 3.57.
In the same order, the values of `CC(C)(C)C(=O)OCOP(=O)(OCOC(=O)C(C)(C)C)C(Cc1cccc(-c2cccc(-c3ccccc3)c2)c1)P(=O)(OCOC(=O)C(C)(C)C)OCOC(=O)C(C)(C)C` are 5.58, 5.62 and 5.79.
As to `O=P([O-])(O)C(C[n+]1ccc(-c2ccccc2-c2ccccc2)cc1)P(=O)(O)O` (centres undefined), the pIC50 in the experiment on MCF7 is 3.55; in the experiment with SF-268 it was 3.61; in the experiment with NCI-H460, 3.55.
With `CC(C)(C)C(=O)OCOP(=O)(OCOC(=O)C(C)(C)C)C(CNc1ccccn1)P(=O)(OCOC(=O)C(C)(C)C)OCOC(=O)C(C)(C)C`, the pIC50 was 5.19 with MCF7, 5.10 with SF-268 and 5.23 in the experiment with NCI-H460.
The matching figures for `Cc1ccc[n+](CC(P(=O)([O-])O)P(=O)(O)O)c1` (centres undefined): 4.42, 4.35 and 4.21.
The matching figures for `O=P(O)(O)C(O)(CCc1cccc(-c2ccccc2-c2ccccc2)c1)P(=O)(O)O`: 3.84, 3.84 and 3.88.
In the same order, the values of `O=P([O-])(O)C(C[n+]1cccc(Br)c1)P(=O)(O)O` (centres undefined) are 3.84, 3.96 and 4.03.
As for `O=P(O)(O)C(O)(Cc1cccc(-c2cccc(-c3ccccc3)c2)c1)P(=O)(O)O`, the values for the pIC50 with MCF7, with SF-268 and in the experiment on NCI-H460 were 3.82, 3.89 and 3.85, respectively.
In the same order, the values of `O=P(O)(O)C(O)(CCc1cccc(-c2ccc(-c3ccccc3)cc2)c1)P(=O)(O)O` are 3.71, 3.76 and 3.88.
For the molecule `O=P(O)(O)C(CNCc1cccc(-c2ccccc2)c1)P(=O)(O)O`, the values for the pIC50 with MCF7, in the experiment on SF-268 and in the experiment on NCI-H460 were 4.34, 5.21 and 5.24, respectively.
With `O=P([O-])(O)C(O)(C[n+]1cccc(Cl)c1)P(=O)(O)O` (centres undefined), the pIC50 with MCF7 is 3.92; in the experiment on SF-268 it was 4.23; with NCI-H460, 4.24.
The matching figures for `O=P(O)(O)C(O)(c1cccc(-c2cccc(-c3ccccc3)c2)c1)P(=O)(O)O`: 3.51, 3.52 and 3.55.
The matching figures for `COc1cc[n+](CC(O)(P(=O)([O-])O)P(=O)(O)O)cc1` (centres undefined): 3.39, 3.36 and 3.19.
The matching figures for `O=P([O-])(O)C(C[n+]1cccc(-c2ccccc2-c2ccccc2)c1)P(=O)(O)O` (centres undefined): 3.63, 3.63 and 3.68.
On to `O=P(O)(O)C(O)(Cc1cccc(-c2ccccc2-c2ccccc2)c1)P(=O)(O)O`, for which the pIC50 is 4.03 in the experiment with MCF7, 4.24 with SF-268 and 4.06 with NCI-H460.
The matching figures for `O=P(O)(O)C(O)(Cc1ccc(-c2ccccc2-c2ccccc2)cc1)P(=O)(O)O`: 2.97, 3.32 and 3.48.
The matching figures for `O=P([O-])(O)C(C[n+]1cccc(C(F)(F)F)c1)P(=O)(O)O` (centres undefined): 3.89, 3.88 and 3.85.
Take `O=P(O)(O)C(CNc1ccncc1)P(=O)(O)O`: the pIC50 with MCF7 was 4.64; with SF-268, 4.84; with NCI-H460, 4.90.
In the same order, the values of `O=P(O)(O)C(CNc1ccccn1)P(=O)(O)O` are 3.65, 3.83 and 4.20.
With `O=P([O-])(O)C(O)(C[n+]1cccc(Cc2ccccc2)c1)P(=O)(O)O` (centres undefined), the results for the pIC50 in the experiment with MCF7, in the experiment with SF-268 and with NCI-H460 were 4.16, 4.17 and 4.73, respectively.
In the same order, the values of `CCCCc1ccc[n+](CC(O)(P(=O)([O-])O)P(=O)(O)O)c1` (centres undefined) are 4.67, 4.88 and 4.83.
For the molecule `CC(C)(C)C(=O)OCOP(=O)(OCOC(=O)C(C)(C)C)C(Cc1ccc(Cl)c(Cl)c1)P(=O)(OCOC(=O)C(C)(C)C)OCOC(=O)C(C)(C)C`, the pIC50 in the experiment on MCF7 is 6.47; in the experiment on SF-268, 5.84; with NCI-H460 it was 5.57.
In the same order, the values of `O=P([O-])(O)C(O)(C[n+]1cccc(Br)c1)P(=O)(O)O` (centres undefined) are 4.47, 4.25 and 4.26.
In the same order, the values of `O=P([O-])(O)C(C[n+]1cccc(I)c1)P(=O)(O)O` (centres undefined) are 3.91, 4.05 and 4.27.
In the same order, the values of `CCCCc1ccc[n+](CC(P(=O)([O-])O)P(=O)(O)O)c1` (centres undefined) are 4.58, 4.62 and 4.48.
Consider `O=P([O-])(O)C(O)(C[n+]1cccc(-c2ccc(C(F)(F)F)cc2)c1)P(=O)(O)O` (centres undefined), for which the values for the negative-log IC50 (pIC50) in the experiment with MCF7, in the experiment with SF-268 and in the experiment on NCI-H460 were 4.84, 4.98 and 4.63, respectively.
In the same order, the values of `Cc1ccc2c(ccc[n+]2CC(O)(P(=O)([O-])O)P(=O)(O)O)c1` (centres undefined) are 3.59, 3.58 and 3.55.
The matching figures for `O=P([O-])(O)C(C[n+]1ccccc1)P(=O)(O)O` (centres undefined): 4.14, 4.19 and 3.96.
The matching figures for `CCc1ccc[n+](CC(P(=O)([O-])O)P(=O)(O)O)c1` (centres undefined): 4.37, 4.35 and 4.21.
With `O=P(O)(O)C(O)(CCc1cccc(-c2cccc(-c3ccccc3)c2)c1)P(=O)(O)O`, the values for the pIC50 in the experiment on MCF7, in the experiment on SF-268 and with NCI-H460 were 4.36, 4.35 and 4.33, respectively.
In the same order, the values of `O=P(O)(O)C(O)(Cc1ccc(-c2cccc(-c3ccccc3)c2)cc1)P(=O)(O)O` are 3.39, 3.21 and 3.38.
The matching figures for `O=P([O-])(O)C(C[n+]1cccc(Cl)c1)P(=O)(O)O` (centres undefined): 3.88, 4.14 and 4.23.
The matching figures for `O=P([O-])(O)C(C[n+]1cccc(-c2ccc(-c3ccccc3)cc2)c1)P(=O)(O)O` (centres undefined): 4.60, 4.63 and 4.67.
With `O=P([O-])(O)C(O)(C[n+]1ccc2ccccc2c1)P(=O)(O)O` (centres undefined), the pIC50 in the experiment with MCF7 is 3.54; in the experiment with SF-268, 3.59; in the experiment with NCI-H460, 3.53.
In the same order, the values of `O=P([O-])(O)C(C[n+]1ccc(Cc2ccccc2)cc1)P(=O)(O)O` (centres undefined) are 3.90, 3.88 and 3.85.
The matching figures for `O=P([O-])(O)C(O)(C[n+]1ccc(-c2ccccc2)cc1)P(=O)(O)O` (centres undefined): 3.52, 3.54 and 3.51.
Take `O=P([O-])(O)C(C[n+]1cccc(-c2ccccc2)c1)P(=O)(O)O` (centres undefined): the results for the pIC50 in the experiment on MCF7, in the experiment with SF-268 and with NCI-H460 were 4.46, 4.36 and 4.38, respectively.
In the same order, the values of `O=P(O)(O)C(Nc1ncccc1OCc1ccccc1)P(=O)(O)O` are 3.47, 3.40 and 2.49.
On to `CCC(C)CNC(P(=O)(O)O)P(=O)(O)O` (centres undefined), for which the pIC50 was 3.35 with MCF7, 3.52 in the experiment with SF-268 and 3.33 with NCI-H460.
The matching figures for `CN(CCCCc1ccccc1)CCC(O)(P(=O)(O)O)P(=O)(O)O`: 4.08, 4.31 and 4.64.

(Values after ChEMBL document CHEMBL1149346, “Activity of nitrogen-containing and non-nitrogen-containing bisphosphonates on tumor cell lines” (J Med Chem, 2006).)
